Measurements reported in patent publication US7341867B2, “Human preprotachykinin gene promoter” (University of Medicine & Dentistry of New Jersey, priority 1999, dated 2008).

Experiments:
Format in all cases: cell-based, human
β-PPT-I mRNA = assay: Quantitative RT-PCR in stimulated bone marrow stroma
Protocol: (§1) In a second embodiment of the present invention, bone marrow stroma was stimulated in serum-free α-MEM supplemented with Insulin-transferrin-selenium-A (Life Technologies). Quantitative RT-PCR with total RNA, extracted from bone marrow stroma and construction of standard DNA was performed as described in Singh, D., supra. The end sequences of the standard DNA contained gene-specific sequences that are complementary for the reaction primers. The primers in the standard DNA flank neutral DNA. Total RNA (2 μg) was reverse transcribed and 200 ng cDNA used in PCR with specific oligonucleotide primers for PPT-I, NK-1 or NK-2. Standard DNA, log10 fold dilutions, ranged between 10^−2 to 10^−6 attomole/L. Each unknown sample was assayed with a particular concentration of standard DNA in the same reaction tube. PCR products (10 μl) were separated by electrophoresis on 1.5% agarose containing ethidium bromide and the densities of the DNA bands quantitated with a Fluorimager (Molecular Dynamics, Sunnyvale, Calif.) and then analyzed with ImageQuant software. A standard curve was established for each unknown sample: band densities of unknown/standard DNA vs. Log10 standard DNA concentration was used to determine the concentration of RNA molecules in the unknown samples. The concentration of the unknown sample was selected at the concentration in which the ratio of the unknown and standard were equivalent.
(§2) Transfected bone marrow stroma was stimulated with optimal concentrations of IL-1α (2.5 ng/ml), SCF (8 ng/ml) or 1 nM substance P, SP (Sigma, St Louis, Mo.) and/or 10 nM NK-1-specific antagonist (CP-99,994) in α-MEM with 2% FCS. In other embodiments, bone marrow stroma was stimulated with 5 μg/ml forskolin, FK (Sigma) for 2 and 5 h. SCF was purchased from R&D Systems (Minneapolis, Minn.) and IL-1α was obtained from Hoffman LaRoche, Nutley, N.J. Pfizer, Inc. (Groton, Conn.) provided CP-99,994. Substance P and CP-99,994 were dissolved and stored as described in Ramewshwar et al (1996), supra. Optimal parameters were determined with dose-response and time-course studies.
Confluent bone marrow stroma was stimulated with 25 ng/ml rhIL-1α or 10 ng/ml SCF for 24 h. Poly A RNA was isolated from total RNA by selection (2×) on oligo-dT cellulose (Life Technologies). The cellulose column was washed once with 10 mM Tris, pH 7.0; 0.5 M NaCl; […] and once with 10 mM Tris, pH 7.0; 0.2 M NaCl; […]. Poly A RNA was eluted with 10 mM Tris (pH 7.0) and […]. RNA was precipitated by standard techniques and then resuspended in DEPC-treated water. The purity was verified by the absence of rRNA.

NK-1 mRNA = assay: as above
Protocol: as §1, §2

NK-2 mRNA = assay: as above; conditions: BM stroma; 8 ng/ml SCF or 2.5 ng/ml IL-1a; 16 h; serum-free α-MEM
Protocol: as §1, §2

[1] = system: PPT-I promoter (Upstream/N0); assay: Luciferase reporter gene assay, pGL3-Upstream/N0 in transfected bone marrow stroma
Protocol: as §2
pGL3-basic with inserts of different fragments from PPT-I-p1.2 was co-transfected with pβ-gal-Control (0.5 μg each) in 80% confluent bone marrow stroma using SuperFect (Qiagen, Valencia, Calif.). After 48 h cells were scraped in 30 μl 250 mM Tris (pH 8.0) and then lysed by freezing and thawing in a dry ice/ethanol bath. Cell-free lysates (24 μl) were obtained by centrifugation at 15,000 g for 5 min at 4° C. and then diluted with 5× cell culture lysis buffer (Promega). Luciferase and β-gal activities were quantitated with 10 μl of lysates using Luciferase assay system (Promega) and Luminescent β-galactosidase detection kit II (Clontech) respectively. In the experimental model, the ratios of Luciferase/β-gal in cells transfected with vector alone ranged from 0.18 to 0.19 and was normalized to 1. Because cytokines induce the promoter upstream of β-gal, in cytokine-stimulated cells, luciferase activity was presented/mg of total protein the levels normalized with stroma transfected with vector alone. Total protein was determined using standard techniquees well known in the art.
Mutations were performed with a mutagenesis kit (Stratagene, La Jolla, Calif.). The desired mutant sequences (Table 1) were synthesized within 40 nt in the forward and reverse directions and then used in PCR with pGL3 containing wild type Upstream/N0. After PCR amplification, mutation was verified by identification of Apa L1 within CRE-like mutant and the loss of Xho 1 in CRE mutant.

SP-IR = assay: ELISA of immunoreactive-SP (SP-IR) in stroma cell extracts
Protocol: Competitive ELISA quantitated SP-IR in supernatants from breast cancer cell cultures that were 80% confluent. Cell-free supernatants were stored in siliconized tubes at −70° C. until ready to be assayed. Streptavidin, […] in distilled water, was added to Immulon 96-well plates (Dynatech Laboratories Inc., Chantilly, Va.). Streptavidin was allowed to dry at 37° C. After this, wells were blocked with 5% nonfat dry milk for 2 hr at room temperature and then washed with PBS containing 0.1% Tween-20 (PBST). Chiron Mimotopes (Emeryville, Calif.) synthesized biotinylated-SP, with spacer arm. Stock solution was diluted in 0.1% (v/v) acetic acid at 5 mg/ml, aliquoted in siliconized tubes and stored at −70° C. Working solution was diluted at 750 ng/ml with PBS containing 0.1% (w/v) BSA and 0.1% (w/v) sodium azide. Biotinylated-SP ([…]) was added to wells and plates incubated for 1 hr at room temperature. Plates were washed (×4) with PBST. Competition by the […] and soluble SP for anti-SP forms the basis for the next step. Equal volume (50 μl) of optimum rabbit anti-SP (1/15,000), and unknown or standard solution were added to wells. Plates were incubated at room temperature for 1 hr. Each unknown was assayed in triplicate as undiluted and three serial dilutions. Bound anti-SP was detected by incubating for 1 hr with optimum (150 ng/ml) AP-goat antirabbit IgG. Color was developed with Sigma 104 phosphatase substrate as described (Rameshwar, P. et al. (1996), Blood 88, 98-106). A standard curve was developed with O.D. (405 nm) versus 12 serial dilutions of standard SP that ranged from 100 to 0.08 ng/ml. […]
In the next set of experiments, we investigated the possibility for an indirect mechanism in the activation of PPT-I promoter. […] Since SCF induces endogenous PPT-I (Table 6), we used ELISA (Singh, D. et al, supra) to quantitate the level of its major translation product, immunoreactive-SP (SP-IR), in stroma cell extracts. […] To address this, we incubated the SCF-stimulated cells with 10 nM of an NK-1-specific antagonist (CP-99,994) and then quantitated luciferase activity. […]

[2] = BM stroma, 8 ng/ml SCF or 2.5 ng/ml IL-1a, 16 h, serum-free α-MEM
[3] = stroma stimulated with SCF, five experiments

In the case of “SCF: stem cell factor, cytokine purchased from R&D Systems”, the “β-PPT-I (molecules/μg total RNA)” value (β-PPT-I mRNA; BM stroma, 1 nM SP, 8 ng/ml SCF and/or 10 nM CP-99,994, 16 h) was 1324 ± 76 molecules/μg total RNA, the “β-PPT-I mRNA” value (β-PPT-I mRNA; [2]) was 1336 ± 134 Molecules/μg total RNA and the “molecules of β-PPT-I/μg poly A” value (β-PPT-I mRNA; poly A RNA from stroma stimulated with 25 ng/ml rhIL-1α or 10 ng/ml SCF for 24 h, n=6) was 134,340±545 molecules of β-PPT-I/μg poly A. For the same substance, the “NK-1 mRNA” value (NK-1 mRNA; [2]) was 5253 ± 170 Molecules/μg total RNA, the NK-1 induced (NK-1 mRNA; optimal SCF for 36 h) was 5052±50 molecules/μg total RNA and the “NK-2 mRNA” value (NK-2 mRNA) was 273 ± 19 Molecules/μg total RNA. For the same substance, the “increase in luciferase activities compared to unstimulated cells” value ([1]; pGL3-Upstream/N0 wild type, optimal SCF or IL-1a, 10 h) was 4 fold, the “induction of luciferase in cells transfected with the double mutants” value ([1]; pGL3-Upstream/N0 with mutant CRE and CRE-like) was “no significant induction” and the “SP-IR in stromal extracts” value (SP-IR; SCF-stimulated, after 36 h, n=5, ±SD) was 115 ± 8 pg/mL. For the same substance, the “SP-IR at 4 h post-transfection” value (SP-IR; [3]) was 122 ± 14 pg/mL and the “SP-IR at time 0 post-transfection” value (SP-IR; [3]) was 110 ± 18 pg/mL.
